Values of other authors as cited in US20210308204A1, “FORMULATIONS CONTAINING LIPOPHILIC EXTRACTS OF SPICY EDIBLE PLANTS USEFUL IN CONTROLLING PAIN AND INFLAMMATION” (priority 2018, published 2021).

Conditions: in vivo, po

- tmax: about 15 minutes
Compound: C/C1=C\CC/C(C)=C/C[C@](O)(C(C)C)CC/C(C)=C/CC1 [serratol]
